In US20240058344A1, “METHODS OF TREATING NEURODEGENERATIVE DISORDERS AND STAT3-LINKED CANCERS USING SUPPRESSORS OF ELECTRON LEAK” (Cornell University, priority 2020, published 2024):

How the values were obtained:
[1] = Drug tolerance during chronic oral administration (body weight, behavior); assay type: in vivo, mice
Procedure: (FIGS. 1C-D) Body weights of male nontransgenic (NTG) or hTauP301S mice treated with S3QEL2 (FIG. 1C) (S3, 5 mg/kg/day, PO in almond butter), S1QEL1.1 (FIG. 1D) (10 mg/kg/day, PO in almond butter), or vehicle. (FIG. 1E) Levels of S3QEL2 in the mouse brain following almond butter (AB) or chow administration at indicated doses for 21 days. (n=15 mice per dose). n=3-15 wild-type mice per condition. (FIG. 1F) Body weight of 4-5-month-old wild-type male mice treated with formulated chow containing S3QEL2 at indicated doses and durations (n=15 mice per dose).
A series of pharmacokinetic and drug tolerance experiments with S3QEL2 in adult wild-type and transgenic hTauP301S mice was first performed. Different administration routes and drug formulations were tested. […] Chow that was formulated to deliver 0, 5, 15, or 30 mg/kg/day of S3QEL2 was also tested.

[2] = tested on: primary neurons; assay: Tau-associated neuronal damage in primary neurons cultured alone (AAV-TauP301S, MAP2/NeuN immunostaining); assay type: cell-based, mouse; settings: 10 μM; AAV human P301S tau
Procedure: Primary neurons were immunostained for MAP2 or NeuN following mock treatment or transduction with AAV encoding human P301S mutant tau under the synapsin-1 promoter. Neurons were cultured without (FIGS. 9A-9B) or with (FIGS. 9C-9D) primary mouse microglia. S3QEL2 (S3, 10 μM). n=4 per condition.
(§1) To begin dissecting the mechanisms by which S3QEL2 affects neural cell function and disease-linked processes, studies in primary cultures were conducted. Isolated mouse-derived neurons were transduced with adeno-associated viral vectors (AAVs) encoding wild-type or the P301S mutant form of the human tau protein (FIG. 8A). […] However, S3QEL reduced neuronal damage in the presence of astrocytes (approx. 30% astrocytes, FIG. 10A). Tau can also promote aberrant neuronal activity and hypersynchrony. S3QEL reduced aberrant neuronal firing in tau-transduced neurons co-cultured with astrocytes (FIGS. 10B-10C).

[3] = tested on: astrocytic-neuronal co-cultures; assay: Neuronal damage (NeuN) and neuronal firing (MEA) in astrocytic-neuronal co-cultures with AAV-TauP301S; assay type: cell-based, mouse; settings: 1 μM
Procedure: (FIG. 10A) Co-cultures were immunostained for NeuN following transduction with AAV encoding human P301S mutant tau. Vehicle (Veh) or S3QEL2 (S3, 1μM) was added on day 8 in vitro and cells were analyzed on day 14. (FIG. 10B) Example traces recorded using multi-electrode array (MEA). Spikes (black) and network bursts (pink boxes). Top traces show population activities. (FIG. 10C) Average neuronal firing (% of baseline) in co-cultures. Mock treatment (control) or AAV-TauP301S with or without S3QEL2 (S3, 1μM) were added on day 6. n=4 wells per condition, *p<0.05, ANOVA with Bonferroni's test.
as §1

[4] = tested on: astrocytic H2O2 production; assay: Released H2O2 from primary astrocytes (Amplex UltraRed); assay type: cell-based, mice; settings: S3QEL2 20 μM, S3QEL1.2 1 μM, approximately 24 h
Procedure: (FIG. 17A) Astrocytes isolated from P2-P3 mice were treated with A1 cocktail consisting of 30 ng/ml TNF-α, 3 ng/ml IL-1α, and 400 ng/ml Clq, and S3QEL1.2 (3 μM) or vehicle for approximately 6 h and analyzed by Western blotting. Phospho-STAT3 levels were normalized to total STAT3 per sample. n=6 wells per condition. **p<0.01, ***p<0.001, one-way ANOVA with Dunnett's multiple comparisons test. (FIG. 17B) Astrocytes isolated from P2-P3 mice were treated with A1 cocktail consisting of 30 ng/ml TNF-α, 3 ng/ml IL-1α, and 400 ng/ml Clq for 24 h, and analyzed for levels of released H2O2 using Amplex UltraRed, a fluorogenic substrate that is a highly sensitive indicator of H2O2, in the presence of horseradish peroxidase and superoxide dismutase. n=6 wells per condition. *p=0.01, Student's t test. (FIG. 17C) Astrocytes isolated from P2-P3 mice were treated with vehicle or 3 ng/ml IL-1α and either S3QEL2 (20 μM), S3QEL1.2 (1 μM), or vehicle for approximately 24 h, and analyzed for levels of released H2O2 using Amplex UltraRed. n=6 wells per condition. *p<0.05, **p<0.01, ***p<0.001, two-way ANOVA with Bonferroni's multiple comparisons test. […]

[5] = tested on: primary astrocytes; assay: Intracellular ATP levels in primary astrocytes; assay type: cell-based
Excerpt: Antimycin A and myxothiazol were used as positive controls to inhibit mitochondrial respiration and ATP production. n=3 wells per condition. ***p<0.001 vs. vehicle, mixed-effects model with Dunnett's multiple comparisons test.

For `CCCN(CCC)c1ncnc2c1cnn2-c1ccc(C)c(C)c1` [S3QEL2], the “Adverse health effects such as weight loss or altered behavior” value ([1]; PO in almond butter, S3QEL2 5 mg/kg/day, S1QEL1.1 10 mg/kg/day, NTG or hTauP301S mice) was “did not result in obvious adverse health effects”, the “Tolerability of chow administration” value ([1]; chow 5, 15 or 30 mg/kg/day, high doses and long treatment durations, adult wild-type mice) was “tolerated well” and the “Tau-associated neuronal damage, neurons cultured alone” value [2] was “did not affect tau-associated neuronal damage”. The “Aberrant increases in neuronal firing (MEA) in astrocytic-neuronal co-cultures” value ([3]; added day 6) was “prevented”, the “Neuronal damage (NeuN) in astrocytic-neuronal co-cultures” value ([3]; added day 8, analyzed day 14) was “prevented neuronal damage” and the “Increases in astrocytic H2O2 levels induced by IL-1α” value ([4]; IL-1α 3 ng/ml) was “suppressed the increases”. The “Baseline astrocytic H2O2 levels” value ([4]; vehicle) was “minimal effects” and the “Intracellular ATP levels” value [5] was “do not affect intracellular ATP levels”.
